# Laboratory results reported in patent publication US20170281582A1, “ENHANCER FOR EATING ACTIVITY AND/OR GASTROINTESTINAL ACTIVITY” (KYOWA HAKKO BIO CO., LTD., priority 2012, published 2017).
# Key:
# ddY mice = test: Small intestinal transit (Evans Blue mobility), gastrointestinal motility; assay type: in vivo; conditions: ddY mice fasted 18 hours, 30 minutes before test meal
# Method: The symbol ** in the figure means a statistically significant difference (P<0.01) when comparing ornithine hydrochloride-administered group (3 g/kg) with control group, and the symbol in the figure means a statistically significant difference (P<0.001) when comparing ornithine hydrochloride-administered group (5 g/kg) with control group. Statistical processing was performed by using ANOVA and Fisher's test.
# Gastrointestinal motility function was examined through small intestinal transit measurements according to the following testing method.
# Male, 5 to 7-week ddY mice were used. […] After 30 minutes, the mice were orally administered with a dyed test meal (Evans Blue 5%, carboxymethyl cellulose 1%). The animals were killed by cervical dislocation after 5 minutes, and immediately cut open in the stomach to remove the whole small intestine. For evaluation of the gastrointestinal motility, the full length of the small intestine, and the length from the pylorus to the farthest point marked by the movement of Evans Blue were measured. Evans Blue mobility was calculated according to the following equation, and used as an index.
# Mobility (%)=(the length from the pylorus to the farthest point marked by the movement of Evans Blue/the full length of small intestine)×100
# Wistar rats = test: Blood growth hormone (GH) over time after intraduodenal administration; assay type: in vivo
# Method: Statistical processing was performed by using ANOVA and Fisher's test.
# Male, 8 to 9-week Wistar rats were used.
compound,measurement,setting,value
"Cl.NCCC[C@H](N)C(=O)O [ornithine hydrochloride, L-ornithine hydrochloride]",small intestinal transit compared to the control group,"ddY mice; oral 3 g/kg (body weight), P<0.01 (FIG. 3)",significantly increased
same,small intestinal transit compared to the control group,"ddY mice; oral 5 g/kg (body weight), P<0.001 (FIG. 3)",significantly increased
D-Lys3-GHRP-6,effect of the antagonist alone on blood GH,Wistar rats; D-Lys3-GHRP-6 0.8 mg/kg i.v. alone,does not show the effect
same,GH concentration increasing effect of ornithine in presence of ghrelin antagonist,"Wistar rats; D-Lys3-GHRP-6 0.8 mg/kg i.v. plus ornithine hydrochloride 5 g/kg, vs ornithine hydrochloride alone, P<0.05 (FIG. 1)",inhibited
